Values of other authors, collected in patent US20120040895A1, “PEPTIDE AVAILABILITY” (priority 2008, published 2012).

Further increase of AUC when consumed with the meal (yoghurt drink consumed with breakfast, versus fasted state): 30% | Increase of plasma IPP level (area under the concentration vs. time curve) compared to a control drink (yoghurt drink drunk in overnight fasted state 30 min prior to breakfast): more than two-fold
Compound: CC[C@H](C)[C@H](N)C(=O)N1CCC[C@H]1C(=O)N1CCC[C@H]1C(=O)O [IPP, Isoleucine-Proline-Proline]
